{"source": "paper PMC5581743", "about": "“Synthesis, characterization, anti-ulcer action and molecular docking evaluation of novel benzimidazole-pyrazole hybrids” (Chemistry Central Journal, 2017)", "tested_on": "ethanol-induced gastric ulcers in rats", "assay": "ethanol-induced gastric ulcer model in rats (anti-ulcerogenic activity)", "assay_type": "in vivo, Albino rats", "design": "key to Ulcer index: sum of lesion lengths (mm) per stomach", "conditions": "for Ulcer index: mean ± SEM, n = 5; for % Inhibition: versus saline group", "procedure": "Albino rats (weighing 180-220 g) were housed at the animal house of the […] Institute of Pharmaceutical Sciences under controlled environment (23-25 °C). Animals were kept in plastic cages with sawdust (changed at every 48 h) and were fasted for 24 h before starting the experiment. Animals were provided with tap water ad libitum and standard pellet diet. Experiments performed complied with rules of Institute of Laboratory Animal Resources, Commission on Life Sciences University, National Research Council (1996) and were approved by Ethical Committee of […] Institute of Pharmaceutical Sciences, […] International University. Albino rats (180-220 g) of either sex were divided into different groups (n = 5). Animals were fasted for 24 h before the study, but had free access to water. Animals in the control group received only normal saline (10 mL/kg). Compound 5a at doses of 100 and 500 μg/kg, (p. o.) was given to the animals in the treatment group. Same procedure was repeated for Compund 5b, 5c, 5d, 5e and 5f. Omeprazole (30 mg/kg) was used as a standard. The rats were sacrificed 1 h later and the stomach removed and observed for ulcers in the glandular region. The surface area of each lesion was measured and scored by method with described by Tan et al. with some modifications. The ulcer index for each rat was taken as the mean ulcer score (0: no ulcer; 1: US ≤ 0.5 mm^2; 2: 0.5 < US ≤ 2.5 mm^2; 3: 2.5 mm^2 < US ≤ 5 mm^2; 4: 5 mm^2 < US ≤ 10 mm^2; 5: 10 mm^2 < US ≤ 15 mm^2; 6: 15 mm^2 < US ≤ 20 mm^2; 7: 20 mm^2 < US ≤ 25 mm^2; 8: 25 mm^2 < US ≤ 30 mm^2; 9: 30 mm^2 < US ≤ 35 mm^2; 10: US > 35 mm^2). The sum of the length (mm) of all the lesions for each stomach was used as the ulcer index (UI). The percentage of inhibition (% I) was calculated using the following formula: %I=USc-USt×100/USc where USc = ulcer surface area of control and USt = ulcer surface area of test animal. The anti-ulcer activity of all the benzimidazole-pyrazole hybrids 5a-f was tested in vivo by ethanol-induced gastric ulcer model in rats. Rats received test compounds in two different doses; 100 and 500 μg/kg orally. Omeprazole (30 mg/kg) was used as a standard. The rats were sacrificed 1 h later and the stomach removed and observed for ulcers in the glandular region. The surface area of each lesion was measured and scored by method. […] Figure 2 show the gastric mucosa of rats. […] The results clearly indicated the greater anti-ulcer potential of our synthesized compounds as compared to omeprazole, the currently used anti-ulcer drug. […] It was observed that substitution pattern of both the aromatic rings attached to pyrazole ring effect the anti-ulcer activity. The highest activity was shown by compound 5d i.e. 83.1% at 500 μg/kg dose. All the compounds were docked against H^+/K^+ ATPase to assess the binding affinities and compared with Omeprazole which is a known mercapto benzimidazole derivative and H^+/K^+ ATPase inhibitor. […] 5d has maximum binding affinity of -9.8 kcal/mole due to maximum number of hydrogen bonding interactions with the target.", "key": {"[1]": {"conditions": "100 µg/kg p.o. + ethanol (1 mL/100 g)"}, "[2]": {"conditions": "500 µg/kg p.o. + ethanol (1 mL/100 g)"}, "[3]": {"conditions": "30 mg/kg + ethanol (1 mL/100 g)"}}}
{"smiles": "O=C(CSc1nc2ccccc2[nH]1)n1nc(-c2ccccc2)cc1-c1ccccc1O", "note": "[Compound 5a, 2-(1H-benzimidazol-2-ylsulfanyl)-1-[5-(2-hydroxyphenyl)-3-phenyl-1H-pyrazol-1-yl]ethanone]", "values": [{"measurement": "Ulcer index", "setting": "[1]", "value": "3.22 ± 0.009"}, {"measurement": "% Inhibition", "setting": "[1]", "value": 35.4, "unit": "%"}, {"measurement": "Ulcer index", "setting": "[2]", "value": "1.07 ± 0.008"}, {"measurement": "% Inhibition", "setting": "[2]", "value": 78.5, "unit": "%"}]}
{"smiles": "O=C(CSc1nc2ccccc2[nH]1)n1nc(-c2ccccc2O)cc1-c1ccccc1O", "note": "[Compound 5b, 2-(1H-benzimidazol-2-ylsulfanyl)-1-[3,5-bis(2-hydroxyphenyl)-1H-pyrazol-1-yl]ethanone]", "values": [{"measurement": "Ulcer index", "setting": "[1]", "value": "3.48 ± 0.008"}, {"measurement": "% Inhibition", "setting": "[1]", "value": 30.2, "unit": "%"}, {"measurement": "Ulcer index", "setting": "[2]", "value": "1.26 ± 0.009"}, {"measurement": "% Inhibition", "setting": "[2]", "value": 74.7, "unit": "%"}]}
{"smiles": "COc1ccc(-c2cc(-c3ccccc3O)n(C(=O)CSc3nc4ccccc4[nH]3)n2)cc1O", "note": "[Compound 5c, 2-(1H-benzimidazol-2-ylsulfanyl)-1-[5-(2-hydroxyphenyl)-3-(3-hydroxy-4-methoxyphenyl) -1H-pyrazol-1-yl]ethanone]", "values": [{"measurement": "Ulcer index", "setting": "[1]", "value": "3.52 ± 0.009"}, {"measurement": "% Inhibition", "setting": "[1]", "value": 29.4, "unit": "%"}, {"measurement": "Ulcer index", "setting": "[2]", "value": "1.48 ± 0.009"}, {"measurement": "% Inhibition", "setting": "[2]", "value": 70.3, "unit": "%"}]}
{"smiles": "O=C(CSc1nc2ccccc2[nH]1)n1nc(-c2ccccc2)cc1-c1ccccc1", "note": "[Compound 5e, 2-(1H-benzimidazol-2-ylsulfanyl)-1-(3,5-diphenyl-1H-pyrazol-1-yl)ethanone]", "values": [{"measurement": "Ulcer index", "setting": "[1]", "value": "3.18 ± 0.01"}, {"measurement": "% Inhibition", "setting": "[1]", "value": 36.2, "unit": "%"}, {"measurement": "Ulcer index", "setting": "[2]", "value": "1.06 ± 0.01"}, {"measurement": "% Inhibition", "setting": "[2]", "value": 79, "unit": "%"}]}
{"smiles": "COc1ccc(-c2cc(-c3ccccc3)nn2C(=O)CSc2nc3ccccc3[nH]2)cc1O", "note": "[Compound 5f, 2-(1H-benzimidazol-2-ylsulfanyl)-1-[5-(3-hydroxy-4-methoxyphenyl)-3-phenyl-1H-pyrazol-1-yl]ethanone]", "values": [{"measurement": "Ulcer index", "setting": "[1]", "value": "3.75 ± 0.016"}, {"measurement": "% Inhibition", "setting": "[1]", "value": 24.8, "unit": "%"}, {"measurement": "Ulcer index", "setting": "[2]", "value": "1.39 ± 0.02"}, {"measurement": "% Inhibition", "setting": "[2]", "value": 72.1, "unit": "%"}]}
{"smiles": "COc1ccc2[nH]c([S+]([O-])Cc3ncc(C)c(OC)c3C)nc2c1", "note": "(centres unmarked) [Omeprazole, reference compound]", "values": [{"measurement": "Ulcer index", "setting": "[3]", "value": "0.84 ± 0.01"}, {"measurement": "% Inhibition", "setting": "[3]", "value": 83.1, "unit": "%"}, {"measurement": "% Inhibition", "setting": "30 mg/kg + ethanol (1 mL/100 g), listed as omeprazole", "value": 83, "unit": "%"}]}
